Measured values as given in the supplement of paper PMC11061612.

Columns and labels:
Test in all cases: combination Emax (second highest fraction inhibited in the dose matrix, 72 h); higher = more inhibition; extreme values may be limits of the assay
[1] = system: HCC1187 (Breast Carcinoma)
Method in brief: (§1)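 Bliss excess equals the observed combination effect minus the expected value EA + EB − EA·EB, where EA and EB are the effects of each agent alone. Combination Emax is the second-highest inhibition within the matrix. Inhibition was scaled from CellTiter-Glo 2.0 luminescence, with 0 set by vehicle wells and 1 by blank wells, after 72 hours of two-drug dosing of cells plated in 1536-well plates.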

[2] = system: KY821 (Acute Myeloid Leukemia)
Method in brief: as §1

M059J (Glioblastoma) = system: M059J (Glioblastoma)
Method in brief: as §1

[3] = system: JHH-4 (Hepatocellular Carcinoma)
Method in brief: as §1

RD (Rhabdomyosarcoma) = system: RD (Rhabdomyosarcoma)
Method in brief: as §1

[4] = system: SNU-398 (Hepatocellular Carcinoma)
Method in brief: as §1

[5] = system: NCI-H520 (Squamous Cell Lung Carcinoma)
Method in brief: as §1

[6] = system: CHSA8926 (Chondrosarcoma)
Method in brief: as §1

[7] = system: ST486 (Burkitt's Lymphoma)
Method in brief: as §1

[8] = system: HCC1419 (Breast Carcinoma)
Method in brief: as §1

[9] = system: SK-GT-4 (Esophageal Adenocarcinoma)
Method in brief: as §1

[10] = system: VMRC-RCZ (Kidney Carcinoma)
Method in brief: as §1

[11] = system: NCCIT (Other Solid Carcinomas)
Method in brief: as §1

[12] = system: T-T (Esophageal Squamous Cell Carcinoma)
Method in brief: as §1

[13] = system: SU-DHL-5 (B-Cell Non-Hodgkin's Lymphoma)
Method in brief: as §1

[14] = system: CW-2 (Colorectal Carcinoma)
Method in brief: as §1

[15] = system: H9 (T-Cell Non-Hodgkin's Lymphoma)
Method in brief: as §1

[16] = system: NCI-H526 (Small Cell Lung Carcinoma)
Method in brief: as §1

[17] = system: DMS-114 (Small Cell Lung Carcinoma)
Method in brief: as §1

[18] = system: DAN-G (Pancreatic Carcinoma)
Method in brief: as §1

| Compound | combination Emax [1] | combination Emax [2] | combination Emax (M059J (Glioblastoma)) | combination Emax [3] | combination Emax (RD (Rhabdomyosarcoma)) | combination Emax [4] | combination Emax [5] | combination Emax [6] | combination Emax [7] | combination Emax [8] | combination Emax [9] | combination Emax [10] | combination Emax [11] | combination Emax [12] | combination Emax [13] | combination Emax [14] | combination Emax [15] | combination Emax [16] | combination Emax [17] | combination Emax [18] |
| --- | --- | --- | --- | --- | --- | --- | --- | --- | --- | --- | --- | --- | --- | --- | --- | --- | --- | --- | --- | --- |
| COc1cc2ncnc(Nc3ccc(F)c(Cl)c3)c2cc1OCCCN1CCOCC1 [Gefitinib] + CC(C)n1c(=O)n(C)c2cnc3cc(F)c(-c4ccc(OCCCN5CCCCC5)nc4)cc3c21 [AZD1390] (first compound max 10 µM, 7x7, partner max 0.3 µM) | 0.108 | 0.416 | 0.178 | 0.234 | 0.0787 | 0.0256 | 0.15 | 0.194 | 0.35 | 0.425 | 0.373 | 0.11 | 0.418 | 0.411 | 0.393 | 0.41 | 0.47 | 0.12 | 0.255 | 0.0121 |
| COc1cc2c(cc1OCCCCCOc1cc3c(cc1OC)C(=O)N1C=C(C)C[C@H]1C=N3)N=C[C@@H]1CC(C)=CN1C2=O [SG3199] + O=C(c1cc(Cc2n[nH]c(=O)c3ccccc23)ccc1F)N1CCN(C(=O)C2CC2)CC1 [Olaparib] (first compound max 0.001 µM, 7x7, partner max 10 µM) | 0.204 | 0.101 | 0.214 | 0.149 | 0.0922 | 0.175 | 0.118 | 0.355 | 0.103 | 0.0746 | 0.104 | 0.0887 | 0.0982 | 0.114 | 0.958 | 0.0839 | 0.0468 | 0.503 | 0.0991 | 0.137 |
| CCN(CCO)CCCOc1ccc2c(Nc3cc(CC(=O)Nc4cccc(F)c4)[nH]n3)ncnc2c1 [AZD2811] + C=CCn1c(=O)c2cnc(Nc3ccc(N4CCN(C)CC4)cc3)nc2n1-c1cccc(C(C)(C)O)n1 [AZD1775] (first compound max 1 µM, partner max 1 µM) | 0.839 | 1 | 0.553 | 0.355 | 0.347 | 0.417 | 0.674 | 0.455 | 0.983 | 0.0861 | 0.363 | 0.217 | 0.781 | 0.303 | 1 | 0.274 | 0.985 | 0.566 | 0.243 | 0.623 |
| CC1(C)CCC(CN2CCN(c3ccc(C(=O)NS(=O)(=O)c4ccc(NCC5CCOCC5)c([N+](=O)[O-])c4)c(Oc4cnc5[nH]ccc5c4)c3)CC2)=C(c2ccc(Cl)cc2)C1 [Venetoclax] + Cn1cnc2c(F)c(Nc3ccc(Br)cc3Cl)c(C(=O)NOCCO)cc21 [Selumetinib] (first compound max 1 µM, 7x7, partner max 3 µM) | 0.129 | 1 | 0.203 | 0.188 | 0.217 | 0.352 | 0.113 | 0.148 | 0.754 | 0.201 | 0.473 | 0.122 | 0.112 | 0.221 | 0.339 | 0.191 | 0.931 | 0.625 | 0.0989 | 0.233 |
| CN(C)CCCOc1ccc(-c2ccc3ncc4c(c3c2)n(C2CCOCC2)c(=O)n4C)cn1 [AZD0156] + C[C@@H]1COCCN1C2=NC(=NC(=C2)C3(CC3)[S@](=N)(=O)C)C4=C5C=CNC5=NC=C4 [AZD6738] (first compound max 1 µM, 7x7, partner max 10 µM) | 0.472 | 0.966 | 0.637 | 0.133 | 0.252 | 0.462 | 0.682 | 0.336 | 0.948 | 0.159 | 0.661 | 0.232 | 0.656 | 0.659 | 1 | 0.543 | 0.972 | 0.529 | 0.515 | 0.696 |
| COc1nnc2ccc(N3CCC(c4ccc(OCCN5CCN(C)C(=O)[C@H]5C)cc4)CC3)nn12 [AZD5153] + CN(CC[C@H](CSC1=CC=CC=C1)NC2=C(C=C(C=C2)S(=O)(=O)NC(=O)C3=CC=C(C=C3)N4CCC(CC4)[C@H](C5=CC=CC=C5C6=CC=C(C=C6)Cl)O)S(=O)(=O)C(F)(F)F)CCO [AZD4320] (first compound max 1 µM, 7x7, partner max 1 µM) | 0.366 | 1 | – | 0.36 | 0.939 | 0.451 | – | 0.695 | – | 0.277 | – | – | – | – | 0.994 | – | 1 | – | – | 0.345 |
| Cc1c2c(nn1C)CSCc1cc(n(C)n1)CSc1cc(c3ccccc3c1)OCCCc1c(C(=O)O)n(C)c3c-2c(Cl)ccc13 [AZD5991] + C[C@@H]1COCCN1C2=NC(=NC(=C2)C3(CC3)[S@](=N)(=O)C)C4=C5C=CNC5=NC=C4 [AZD6738] (first compound max 1 µM, 7x7, partner max 10 µM) | 1 | 1 | 0.774 | 0.369 | 0.739 | 1 | 0.619 | 0.643 | 1 | 0.275 | 0.526 | – | 0.864 | 0.932 | 1 | 0.443 | 1 | 0.833 | 0.815 | 0.737 |
| COc1cccc(OCCCN)c1-c1cc(Nc2cnc(C#N)cn2)n[nH]1 [Prexasertib] + Cc1cc2ncnn2cc1Nc1ncc2c(n1)n(C1CCOCC1)c(=O)n2C [AZD7648] (first compound max 1 µM, 7x7, partner max 10 µM) | 0.614 | 1 | 0.693 | 0.62 | 0.571 | 0.441 | 0.881 | 0.416 | 0.996 | 0.288 | 0.735 | 0.362 | 0.801 | 0.65 | 1 | 0.474 | 1 | 0.92 | 0.477 | 0.816 |
| Cc1c2c(nn1C)CSCc1cc(n(C)n1)CSc1cc(c3ccccc3c1)OCCCc1c(C(=O)O)n(C)c3c-2c(Cl)ccc13 [AZD5991] + C1CN(CCC1(C(=O)N[C@@H](CCO)C2=CC=C(C=C2)Cl)N)C3=NC=NC4=C3C=CN4 [Capivasertib] (first compound max 1 µM, 7x7, partner max 3 µM) | 1 | 1 | 0.44 | 0.211 | 0.535 | 1 | 0.561 | 0.597 | 0.829 | 0.555 | 0.377 | 0.336 | 0.82 | 0.922 | 1 | 0.179 | 0.847 | 0.47 | 0.911 | 0.401 |
| Cc1c2c(nn1C)CSCc1cc(n(C)n1)CSc1cc(c3ccccc3c1)OCCCc1c(C(=O)O)n(C)c3c-2c(Cl)ccc13 [AZD5991] + Cn1cnc2c(F)c(Nc3ccc(Br)cc3Cl)c(C(=O)NOCCO)cc21 [Selumetinib] (first compound max 1 µM, 7x7, partner max 3 µM) | 0.986 | 1 | 0.264 | 0.492 | 0.625 | 1 | 0.176 | 0.303 | 0.993 | 0.284 | 0.574 | 0.214 | 0.579 | 0.936 | 1 | 0.314 | 1 | – | 0.43 | 0.84 |
| Cc1c2c(nn1C)CSCc1cc(n(C)n1)CSc1cc(c3ccccc3c1)OCCCc1c(C(=O)O)n(C)c3c-2c(Cl)ccc13 [AZD5991] + C=CCn1c(=O)c2cnc(Nc3ccc(N4CCN(C)CC4)cc3)nc2n1-c1cccc(C(C)(C)O)n1 [AZD1775] (first compound max 1 µM, partner max 1 µM) | 0.998 | 1 | 0.634 | 0.545 | 0.788 | 1 | 0.76 | 0.679 | 1 | 0.198 | 0.465 | – | 0.86 | 0.915 | 1 | 0.402 | 1 | 0.818 | 0.657 | 0.883 |
| CC(=O)Nc1cccc(-n2c(=O)n(C3CC3)c(=O)c3c(Nc4ccc(I)cc4F)n(C)c(=O)c(C)c32)c1 [Trametinib] + Cc1nc(-c2cn3c(n2)-c2ccc(-c4cnn(C(C)(C)C(N)=O)c4)cc2OCC3)n(C(C)C)n1 [Taselisib] (first compound max 1 µM, 7x7, partner max 10 µM) | 0.456 | 0.97 | 0.713 | 0.997 | 0.972 | 0.56 | 0.65 | – | 0.775 | 0.649 | 0.954 | 0.308 | 0.73 | 0.903 | 1 | 0.565 | 0.984 | 0.304 | 0.668 | 0.999 |
| C[C@@H](c1ccc2nccn2c1)n1nnc2ncc(-c3cnn(C)c3)nc21 [Savolitinib] + CN(CC[C@H](CSC1=CC=CC=C1)NC2=C(C=C(C=C2)S(=O)(=O)NC(=O)C3=CC=C(C=C3)N4CCC(CC4)[C@H](C5=CC=CC=C5C6=CC=C(C=C6)Cl)O)S(=O)(=O)C(F)(F)F)CCO [AZD4320] (first compound max 1 µM, 7x7, partner max 1 µM) | 0.205 | 1 | – | 0.256 | 0.646 | 0.245 | – | 0.528 | – | 0.325 | – | – | – | – | 0.24 | – | 0.929 | – | – | 0.199 |
